The NIST ThermoML archive (doi:10.1016/j.jct.2018.11.014)
Numbers after ± are expanded uncertainties.

Assay: molar heat capacity at constant pressure
Conditions: 101.33 kPa, Crystal, Vacuum adiabatic calorimetry

O=C(CO)[C@H](O)[C@H](O)[C@H](O)CO [D-psicose]
Conditions | molar heat capacity at constant pressure [J/K/mol]
123.06 K | 95.25 ± 0.97
123.75 K | 95.92 ± 0.98
124.29 K | 96.23 ± 0.98
124.5 K | 96.3 ± 0.99
125.14 K | 96.92 ± 0.99
125.8 K | 97.36 ± 1
125.92 K | 97.34 ± 1
126.54 K | 97.93 ± 1
127.3 K | 98.49 ± 1
127.33 K | 98.38 ± 1
127.93 K | 98.98 ± 1
128.73 K | 99.42 ± 1
128.78 K | 99.54 ± 1
129.31 K | 99.93 ± 1
130 K | 100.42 ± 1
130.16 K | 100.47 ± 1
130.29 K | 100.63 ± 1
130.71 K | 100.99 ± 1
131.62 K | 101.53 ± 1
131.84 K | 101.76 ± 1
132.14 K | 102.08 ± 1
133.07 K | 102.57 ± 1.1
133.37 K | 102.87 ± 1.1
133.59 K | 103.04 ± 1.1
134.51 K | 103.62 ± 1.1
134.89 K | 103.97 ± 1.1
135.06 K | 104.17 ± 1.1
135.94 K | 104.68 ± 1.1
136.44 K | 105.12 ± 1.1
136.51 K | 105.24 ± 1.1
137.4 K | 105.69 ± 1.1
137.99 K | 106.23 ± 1.1
138.07 K | 106.25 ± 1.1
138.89 K | 106.78 ± 1.1
139.5 K | 107.37 ± 1.1
139.73 K | 107.46 ± 1.1
140 K | 107.65 ± 1.1
140.36 K | 107.86 ± 1.1
141 K | 108.43 ± 1.1
141.38 K | 108.63 ± 1.1
141.83 K | 108.94 ± 1.1
142.49 K | 109.66 ± 1.1
143.02 K | 109.81 ± 1.1
143.29 K | 109.97 ± 1.1
143.97 K | 110.56 ± 1.1
144.64 K | 111.02 ± 1.1
144.78 K | 111.03 ± 1.1
145.47 K | 111.62 ± 1.1
146.29 K | 112.11 ± 1.1
146.3 K | 112.15 ± 1.1
147.05 K | 112.77 ± 1.1
147.84 K | 113.18 ± 1.1
147.99 K | 113.34 ± 1.1
148.65 K | 113.9 ± 1.2
149.42 K | 114.29 ± 1.2
149.66 K | 114.52 ± 1.2
150 K | 114.81 ± 1.2
150.25 K | 115.05 ± 1.2
150.99 K | 115.45 ± 1.2
151.33 K | 115.73 ± 1.2
151.83 K | 116.23 ± 1.2
152.59 K | 116.62 ± 1.2
152.98 K | 116.92 ± 1.2
153.45 K | 117.32 ± 1.2
154.22 K | 117.72 ± 1.2
154.66 K | 118.11 ± 1.2
155.09 K | 118.5 ± 1.2
155.87 K | 118.94 ± 1.2
156.38 K | 119.3 ± 1.2
156.72 K | 119.64 ± 1.2
157.54 K | 120.08 ± 1.2
158.08 K | 120.68 ± 1.2
158.34 K | 120.83 ± 1.2
159.19 K | 121.26 ± 1.2
159.8 K | 121.76 ± 1.2
159.95 K | 121.9 ± 1.2
160 K | 121.93 ± 1.2
160.88 K | 122.45 ± 1.2
161.55 K | 122.94 ± 1.2
161.59 K | 123.12 ± 1.2
162.65 K | 123.73 ± 1.3
163.25 K | 124.33 ± 1.3
163.33 K | 124.2 ± 1.3
164.46 K | 125 ± 1.3
164.91 K | 125.57 ± 1.3
165.14 K | 125.56 ± 1.3
166.25 K | 126.31 ± 1.3
166.6 K | 126.8 ± 1.3
166.94 K | 126.82 ± 1.3
168.04 K | 127.62 ± 1.3
168.33 K | 127.92 ± 1.3
168.72 K | 128.08 ± 1.3
169.85 K | 128.88 ± 1.3
170 K | 129.01 ± 1.3
170.09 K | 129.15 ± 1.3
170.5 K | 129.38 ± 1.3
171.7 K | 130.21 ± 1.3
171.88 K | 130.42 ± 1.3
172.31 K | 130.62 ± 1.3
173.54 K | 131.46 ± 1.3
173.65 K | 131.69 ± 1.3
174.14 K | 131.92 ± 1.3
175.36 K | 132.69 ± 1.4
175.42 K | 132.94 ± 1.4
175.97 K | 133.17 ± 1.4
177.18 K | 134.01 ± 1.4
177.23 K | 134.2 ± 1.4
177.78 K | 134.49 ± 1.4
179.06 K | 135.42 ± 1.4
179.11 K | 135.51 ± 1.4
179.59 K | 135.75 ± 1.4
180 K | 136.08 ± 1.4
181.01 K | 136.76 ± 1.4
181.03 K | 136.92 ± 1.4
181.46 K | 137.08 ± 1.4
182.93 K | 138.2 ± 1.4
182.95 K | 138.09 ± 1.4
183.4 K | 138.47 ± 1.4
184.83 K | 139.53 ± 1.4
184.88 K | 139.49 ± 1.4
185.32 K | 139.84 ± 1.4
186.71 K | 140.84 ± 1.4
186.79 K | 140.88 ± 1.4
187.28 K | 141.21 ± 1.4
188.62 K | 142.21 ± 1.4
188.74 K | 142.23 ± 1.4
189.26 K | 142.58 ± 1.4
190 K | 143.15 ± 1.4
190.56 K | 143.63 ± 1.5
190.71 K | 143.67 ± 1.5
191.28 K | 144.05 ± 1.5
192.49 K | 144.97 ± 1.5
192.68 K | 145.06 ± 1.5
193.32 K | 145.45 ± 1.5
194.41 K | 146.37 ± 1.5
194.63 K | 146.4 ± 1.5
195.35 K | 146.92 ± 1.5
196.32 K | 147.62 ± 1.5
196.58 K | 147.65 ± 1.5
197.38 K | 148.33 ± 1.5
198.25 K | 149.1 ± 1.5
198.55 K | 149.16 ± 1.5
199.39 K | 149.76 ± 1.5
200 K | 150.21 ± 1.5
200.22 K | 150.43 ± 1.5
200.55 K | 150.56 ± 1.5
201.43 K | 151.19 ± 1.5
202.17 K | 151.83 ± 1.5
202.58 K | 152.06 ± 1.5
203.5 K | 152.67 ± 1.6
204.12 K | 153.18 ± 1.6
204.65 K | 153.53 ± 1.6
205.56 K | 154.09 ± 1.6
206.7 K | 154.98 ± 1.6
207.61 K | 155.56 ± 1.6
208.78 K | 156.4 ± 1.6
209.65 K | 157.04 ± 1.6
210 K | 157.3 ± 1.6
210.89 K | 157.92 ± 1.6
211.72 K | 158.49 ± 1.6
212.99 K | 159.44 ± 1.6
213.81 K | 160.01 ± 1.6
215.07 K | 160.9 ± 1.6
215.9 K | 161.43 ± 1.6
217.15 K | 162.36 ± 1.6
217.98 K | 163.06 ± 1.6
219.31 K | 163.88 ± 1.7
220 K | 164.4 ± 1.7
220.04 K | 164.46 ± 1.7
221.53 K | 165.48 ± 1.7
222.21 K | 165.84 ± 1.7
223.74 K | 167.09 ± 1.7
224.47 K | 167.6 ± 1.7
225.94 K | 168.64 ± 1.7
226.71 K | 169.21 ± 1.7
228.14 K | 170.2 ± 1.7
228.95 K | 170.75 ± 1.7
230 K | 171.54 ± 1.7
230.36 K | 171.83 ± 1.7
231.25 K | 172.46 ± 1.7
232.61 K | 173.46 ± 1.8
233.65 K | 174.15 ± 1.8
234.87 K | 174.98 ± 1.8
236.07 K | 175.9 ± 1.8
237.14 K | 176.72 ± 1.8
238.49 K | 177.45 ± 1.8
239.4 K | 178.38 ± 1.8
240 K | 178.72 ± 1.8
240.95 K | 179.37 ± 1.8
241.69 K | 179.82 ± 1.8
243.45 K | 181.14 ± 1.8
244.01 K | 181.62 ± 1.8
245.99 K | 183.07 ± 1.9
246.32 K | 183.25 ± 1.9
248.54 K | 184.87 ± 1.9
248.61 K | 184.95 ± 1.9
250 K | 185.94 ± 1.9
250.9 K | 186.65 ± 1.9
251.09 K | 186.81 ± 1.9
253.21 K | 188.45 ± 1.9
253.63 K | 188.66 ± 1.9
255.55 K | 189.85 ± 1.9
256.15 K | 190.4 ± 1.9
257.88 K | 191.75 ± 1.9
258.7 K | 192.25 ± 1.9
260 K | 193.15 ± 1.9
260.93 K | 193.78 ± 2
263.32 K | 195.6 ± 2
265.71 K | 197.22 ± 2
268.09 K | 199.02 ± 2
270 K | 200.36 ± 2
270.5 K | 200.87 ± 2
272.99 K | 202.45 ± 2
275.52 K | 204.17 ± 2.1
278.04 K | 206.05 ± 2.1
280 K | 207.59 ± 2.1
280.55 K | 207.87 ± 2.1
281.85 K | 208.9 ± 2.1
282.34 K | 209.34 ± 2.1
283.14 K | 209.63 ± 2.1
284.44 K | 210.76 ± 2.1
284.81 K | 211 ± 2.1
285.82 K | 211.74 ± 2.1
287.07 K | 212.81 ± 2.1
287.31 K | 212.9 ± 2.1
288.48 K | 213.7 ± 2.2
289.68 K | 214.75 ± 2.2
289.9 K | 214.79 ± 2.2
290 K | 214.85 ± 2.2
291.13 K | 215.63 ± 2.2
292.28 K | 216.49 ± 2.2
292.52 K | 216.73 ± 2.2
293.77 K | 217.6 ± 2.2
294.87 K | 218.44 ± 2.2
295.13 K | 218.64 ± 2.2
296.44 K | 219.94 ± 2.2
297.49 K | 220.33 ± 2.2
298.15 K | 220.79 ± 2.2
299.14 K | 221.01 ± 2.2
300 K | 222.14 ± 2.2
300.13 K | 222.34 ± 2.2
301.82 K | 223.5 ± 2.3
302.77 K | 224.25 ± 2.3
304.49 K | 225.49 ± 2.3
305.39 K | 226.09 ± 2.3
307.15 K | 227.47 ± 2.3
308 K | 228.01 ± 2.3
309.84 K | 229.4 ± 2.3
310 K | 229.48 ± 2.3
310.63 K | 229.95 ± 2.3
312.56 K | 231.38 ± 2.3
313.29 K | 231.87 ± 2.3
315.26 K | 233.4 ± 2.4
315.94 K | 233.92 ± 2.4
318.01 K | 235.4 ± 2.4
318.58 K | 235.78 ± 2.4
320 K | 236.88 ± 2.4
320.81 K | 237.33 ± 2.4
321.2 K | 237.81 ± 2.4
323.64 K | 239.66 ± 2.4
323.85 K | 239.71 ± 2.4
326.49 K | 241.59 ± 2.4
326.53 K | 241.79 ± 2.4
329.19 K | 243.75 ± 2.5
329.33 K | 243.86 ± 2.5
330 K | 244.34 ± 2.5
